The source of these data is patent US20230285365A1, “USE OF A DHODH INHIBITOR COMPOUND IN COMBINATION CANCER THERAPY” (Servier Pharmaceuticals LLC, priority 2020, published 2023).

The test deals with mouse lymphoma models (DLBCL, MCL, Burkitt lymphoma, Hodgkin lymphoma, undifferentiated lymphoma). Nature of the test: Growth inhibition study in tumor-bearing mice, various mouse lymphoma models. The conditions noted are these: doses as in treatment table (Compound 1 100 mg/kg BID, rituximab 20 mg/kg BIW, CHOP), FIGS. 1-3. The test is classed as in vivo. From the text: See e.g., FIGS. 1-3, which show complete regression of certain diffuse large B-cell lymphoma (DLBCL), mantle cell lymphoma (MCL), Burkitt lymphoma, Hodgkin lymphoma, and undifferentiated lymphoma mouse models following treatment with Compound 1 and R-CHOP.
Growth Inhibition Study of Compound 1 with R-CHOP in Tumor-Bearing Mice.
Mice were implanted subcutaneously with 5×10^6 to 2×10^7 cells as required for each model. Tumor volumes were monitored twice a week until tumors reach approximately 150 mm^3. Once tumor burden was at this level, mice were randomized and treated with the following.
At the study end, tumor tissue, and plasma were collected 1 hr. post final dose of Compound 1. Treatment was well tolerated. FIGS. 1-3 show the percent change in tumor volume for the mouse models treated. […] A similar result was observed across the multiple subsets of lymphoma tested.

For rituximab, the “tumor response (percent change in tumor volume)” value is “tumor growth continued”.
